From PubChem BioAssay (NCI) come the findings set out here.

Several values for one entry are separate records, joined by “and”; a condition that tells them apart may be missing. Identical values can stand only once.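 1) Cells in 96-well plates. 2) Compound, 48 h, 5 concentrations. 3) Linear interpolation between surrounding doses. 4) Unreached endpoint = highest concentration. GI50: concentration for 50% inhibition of growth. TGI denotes the concentration required for complete inhibition of growth.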 Where a SMILES comes first, the peptide text is derived from it. [ ]: non-standard residue; d: D form. The star is where a group is joined. ξ: configuration not given here. ξF = NC(Cc1ccccc1)C(=O)O; Cbz = O=C(OCc1ccccc1)*

For one assay, the system named is SNB-75 CNS. Description: NCI anticancer screen, dose series, 48 h.
`CCOC(=O)CNC(=O)C(Cc1ccccc1)NC(=O)OCc1ccccc1` (centres undefined) (Cbz-[ξF]-Gly-OEt) gave a TGI of more than 100 µM.

`N#Cc1sc2nc3ccccc3n2c1N`: the TGI is more than 100 µM.

The molecule `Cc1c(C)c2c(c(N)c1C#N)C(=O)N(Cc1ccc(S(N)(=O)=O)cc1)C2=O` registered a TGI of more than 53.3 µM.

`CN(NC1=NCCO1)c1ccc2ccccc2c1` came in with a TGI of 74.7 µM. Take `COC(=O)/C=C/c1ccc(OP(=O)(O)O)c(OC)c1`: the TGI is more than 100 µM. `CCOC(=O)C1(C/C=C\CBr)CCCC1=O` (centres undefined): the TGI was more than 100 µM. Molecule `Cc1cc(O)c(/C=N/C(N)=S)c(=O)o1` had a TGI of more than 100 µM. With `O=C(NCCN(CCNC(=O)c1cccc(O)c1O)CCNC(=O)c1cccc(O)c1O)c1cccc(O)c1O`, the TGI is more than 100 µM. `COc1cc2nc(Cl)nc(NS(=O)(=O)c3cc4ccccc4s3)c2cc1OC`: the TGI turned out to be 60 µM. The molecule `CC(C)(C)OC(=O)N(CCCCNC(=O)C(F)(F)F)CCCNC(=O)C(F)(F)F` displayed a TGI of more than 100 µM. Still for that read-out and setting: for `O=c1c(-c2ccccc2)nnc2n(Cc3ccccc3)c3ccccc3n12` the value was more than 100 µM; for `C=CCON(C(=O)OC(C)(C)C)C(C)(C)C`, more than 100 µM; for `Cc1cc2nc3c(C#N)c(-c4ccccc4)/c(=C\Nc4ccc(F)cc4)c(=O)n3c2cc1C`, more than 100 µM.

In the case of `COc1cc([C@@H]2c3cc4c(cc3[C@@H](Nc3ccc(NC(=O)c5cc([N+](=O)[O-])cn5C)cc3)[C@H]3COC(=O)[C@H]23)OCO4)cc(OC)c1O`, the TGI was more than 63.5 µM.

The subject of a further assay is LOX IMVI melanoma. Kind of assay: NCI anticancer screen, dose series, 48 h.
Regarding `COC1(OC)CCc2c(sc3ncnc(Nc4cccc(Br)c4)c23)C1`, the TGI is more than 100 µM.

`CC(C)C(Cl)CCC(C)(Cl)C(=O)CBr` (centres undefined) came in with a TGI of 2.36 µM. On to `Clc1ccc(C=Nc2ccc(Oc3ccc(Cl)cc3)c(Cl)c2)cc1`, for which the TGI is 39.1 µM. `N#Cc1ccccc1OCCOc1ccccc1C#N` displayed a TGI of more than 100 µM.

Turning to `CCOC(=O)c1cn(CC)c(=O)n2c1nc1ccccc12`, the TGI came out at 84.1 µM. Consider `O=[N+]([O-])c1ccc(/C=N/Nc2nc3ccccc3[nH]2)o1`, for which the TGI stood at 35 µM. As for `NNc1nnc(CCCCCCCCc2nnc(NN)n2N)n1N`, the TGI is more than 100 µM. With `COc1ccc2nc3c(c(N)c2c1)C1CCC3C1(C)C` (centres undefined), the TGI was more than 100 µM. `Oc1c(N2CCCCC2)cc(-c2cc(N3CCCCC3)c(O)c3ccccc23)c2ccccc12` displayed a TGI of 73.2 µM. `C[C@H]1CC[C@@]2(OC1)O[C@H]1C[C@H]3[C@@H]4CC[C@@H]5C[C@@H](OC6OC(CO)C(O)C(O)C6OC6OC(CO)C(O)C(O)C6O)CC[C@]5(C)[C@H]4CC[C@]3(C)[C@H]1[C@@H]2C` (some centres undefined) registered a TGI of 3.75 µM. `CCN1/C(=C/C#C/C(C)=C\c2sc3ccc(Cl)cc3[n+]2CC)Sc2ccc(Cl)cc21` showed a TGI of 14.6 µM. On to `Cc1nc2sc3cccc(Cl)c3n2c(=O)c1N=Nc1ccc(Cl)cc1`, for which the TGI is more than 100 µM. Turning to `COC(=O)[C@@H]1CO[C@H](C(C)(C)C)N1C(=O)N1C=CC(=O)C[C@H]1C`, the TGI was more than 100 µM. Regarding `Cn1c(CNc2ccc(-c3n[nH]c(=S)n3C)cc2)n[nH]c1=S`, the TGI was more than 100 µM. In turn, `Cc1ccc(S[C@@](C=O)(NC(=O)OCc2ccccc2)C(F)(F)F)cc1` yielded a TGI of 48.8 µM.

`COc1ccc(CCCCNCc2cccc(CNCCCCc3ccc(OC)cc3)c2)cc1` registered a TGI of 3.23 µM. For the molecule `CC(SC(=S)N1CCOCC1)C(=O)Nc1nnc(-c2ccc(Cl)cc2)o1` (centres undefined), the TGI was more than 100 µM.

For `CCOC(=O)CNC(=O)C(Cc1ccccc1)NC(=O)OCc1ccccc1` (centres undefined) (Cbz-[ξF]-Gly-OEt), the TGI is more than 100 µM.

Take `N#Cc1sc2nc3ccccc3n2c1N`: the TGI is more than 100 µM.

In turn, `O=C(O)CCCc1ccc2c(c1)CC1(C2)Cc2cc3c(cc2C1)CCCC3` returned a TGI of 32.7 µM. The molecule `Cc1c(C)c2c(c(N)c1C#N)C(=O)N(Cc1ccc(S(N)(=O)=O)cc1)C2=O` showed a TGI of more than 100 µM. Molecule `CN(NC1=NCCO1)c1ccc2ccccc2c1` gave a TGI of more than 100 µM. Regarding `COC(=O)/C=C/c1ccc(OP(=O)(O)O)c(OC)c1`, the TGI is more than 100 µM. Take `CCOC(=O)C1(C/C=C\CBr)CCCC1=O` (centres undefined): the TGI stood at 31.2 µM.

The molecule `Cc1[nH]n(-c2nc3c(c(=O)[nH]2)CCCC3)c(=O)c1CCO` gave a TGI of more than 100 µM. Turning to `O=C(NCCN(CCNC(=O)c1cccc(O)c1O)CCNC(=O)c1cccc(O)c1O)c1cccc(O)c1O`, the TGI is more than 51.5 µM.

For the molecule `COc1cc2nc(Cl)nc(NS(=O)(=O)c3cc4ccccc4s3)c2cc1OC`, the TGI is 59.5 µM. `COC(=O)/C=C(\C(=O)OC)c1cc(C)c2cc(C(C)C)ccc(C)c1-2` had a TGI of more than 100 µM.

As to `O=c1c(-c2ccccc2)nnc2n(Cc3ccccc3)c3ccccc3n12`, the TGI is more than 100 µM. Still for that read-out and setting: under `C=CCON(C(=O)OC(C)(C)C)C(C)(C)C` stands more than 100 µM; under `Cc1cc2nc3c(C#N)c(-c4ccccc4)/c(=C\Nc4ccc(F)cc4)c(=O)n3c2cc1C`, more than 100 µM.

Take `COc1cc([C@@H]2c3cc4c(cc3[C@@H](Nc3ccc(NC(=O)c5cc([N+](=O)[O-])cn5C)cc3)[C@H]3COC(=O)[C@H]23)OCO4)cc(OC)c1O`: the GI50 was 0.111 µM and 0.0268 µM.

A further assay relates to UACC-62 melanoma. Kind of assay: NCI anticancer screen, dose series, 48 h.
`COC1(OC)CCc2c(sc3ncnc(Nc4cccc(Br)c4)c23)C1` registered a TGI of more than 100 µM.

With `C=CCC(CCC(C)=O)(C(=O)OCC)C(=O)OCC`, the TGI was more than 100 µM. `CC(C)C(Cl)CCC(C)(Cl)C(=O)CBr` (centres undefined) gave a TGI of 10.2 µM. `Clc1ccc(C=Nc2ccc(Oc3ccc(Cl)cc3)c(Cl)c2)cc1` registered a TGI of 41.5 µM. Same read-out and setting: under `N#Cc1ccccc1OCCOc1ccccc1C#N` stands more than 100 µM; under `CCOC(=O)c1cn(CC)c(=O)n2c1nc1ccccc12`, more than 100 µM. `Cc1cccc2sc(NC(=O)NS(=O)(=O)n3cnc4ccccc43)nc12`: the TGI was 34.3 µM.

The molecule `COc1ccc2nc3c(c(N)c2c1)C1CCC3C1(C)C` (centres undefined) registered a TGI of 58 µM.

In the case of `Oc1c(N2CCCCC2)cc(-c2cc(N3CCCCC3)c(O)c3ccccc23)c2ccccc12`, the TGI amounted to 51.6 µM. In turn, `C[C@H]1CC[C@@]2(OC1)O[C@H]1C[C@H]3[C@@H]4CC[C@@H]5C[C@@H](OC6OC(CO)C(O)C(O)C6OC6OC(CO)C(O)C(O)C6O)CC[C@]5(C)[C@H]4CC[C@]3(C)[C@H]1[C@@H]2C` (some centres undefined) showed a TGI of 4.16 µM. In the case of `O=C(NCCC1CNc2ccccc21)OCc1ccccc1` (centres undefined), the TGI is more than 100 µM. In turn, `CCN1/C(=C/C#C/C(C)=C\c2sc3ccc(Cl)cc3[n+]2CC)Sc2ccc(Cl)cc21` had a TGI of 13.6 µM.

For `CSc1nncc(-c2cc3c(c(SC)n2)CCCC3)n1`, the TGI is more than 100 µM.
